The values below come from US10766869B2, “Triazoles for the treatment of demyelinating dieases” (Vertex Pharmaceuticals Incorporated, priority 2015, dated 2020).

SMILES strings stand for the structures. Read-outs that look alike come from different tables or passages of the source.

The test has as its system primary rat mixed cortical cells. Nature of the test: In vitro myelination assay (MBP positive myelin strands, fold myelin pixels above background). The conditions noted are these: for fold induction at 1 µM / fold induction at 10 µM: Rattus norvegicus; for fold induction at 1 µM: 1.0 μM compound. It is filed as cell-based. The text has this: In Vitro Myelination Assay
Compounds were screened for their ability to induce myelination using a primary rat mixed cortical cell culture assay, which contains neurons, oligodendrocyte precursor cells, oligodendrocytes, astrocytes and microglia. The assay quantifies myelination by measuring myelin basic protein (MBP) immunofluorescent positive myelin strands from images taken using a Cellomics Array Scan (model Arrayscan VTI HCS Reader) or a Molecular Devices Image Xpress (model IXM XL) high content imager. The myelin strands were quantitated using a custom created myelin detection software program. Test compounds were dissolved in DMSO to make a 10 mM initial stock solution. Dilutions were made in myelination medium to obtain the final solutions for the assay and were tested in primary rat mixed cortical cells at selected doses.
Primary rat mixed cortical cells were prepared from harvested cerebral cortices from postnatal day 1 (P1) rats (P1 Rat CD® IGS pups) were purchased from Charles River) in Complete Dissociation Medium, wherein the meninges were removed and the cortical tissue chopped with a razor blade into ˜1 mm^3 pieces. Tissue from 1-3 pups was collected and placed into 15 ml conical tubes in a total volume of 5 ml of Complete Dissociation Medium. Activated papain (3 ml) was added to each 15 ml conical tube and tissue was incubated at 37° C. for 30 minutes. After the 30 minute incubation, DNase (Sigma D4527; 75 μl of a 1 mg/ml stock) was added to each tube, followed by mechanical trituration using a 2 ml serological pipette and autopipettor to gently dissociate the tissue. Following trituration, larger tissue pieces were allowed to settle by gravity, and the supernatant containing dissociated cells was transferred to a 50 ml conical tube with 4 ml of trypsin inhibitor. Cells were pelleted by centrifugation, resuspended in myelination medium and filtered through a 40 μm filter. Cells were then seeded in 96-well plates (BD Biosciences, Black, PDL-coated, Cat. No. 356640) at 87,500-95,000 cells/well in a final volume of 200 μl of Myelination Medium in the presence or absence of compound and cultured for 14 days in a humidified 37° C. incubator with 5% CO2. Half the medium was removed and replaced with fresh medium containing 1× compound on days 6 and 10. Using a Biotek automatic plate washer (model Biomek® FXP Laboratory Automation Workstation), cells were fixed with 4% paraformaldehyde on day 14, washed with PBS and blocked in 5% normal goat serum (Vector Laboratories, S-1000) in 0.1% PBS-TritonX-100 (PBST) for 1 hour. Cells were stained with 1:500 anti-MBP (Covance, cat # SMI99) primary antibody in 1% normal goat serum in 0.1% PBST for 2 hours at room temperature followed by 2 washes with PBST. A final incubation in secondary antibody (1:1000, Invitrogen, Alexa-488 anti-mouse IgG2b) and 1:10,000 Hoechst dye in 1% normal goat serum in 0.1% PBST was performed for 2 hours at room temperature. Plates were washed with PBS and then scanned on a Cellomics Array Scan using a 10× objective (25 images per well) or the Image Xpress using a 10× objective (9 image per well). Images were analyzed using Vertex myelin detection software (described below) to quantify total MBP myelin pixels per well. Fold myelin pixels above background at two concentrations (1.0 μM and 10.0 μM) relative to baseline of no added compound are reported below in Table 4. Standard deviation for each compound concentration was calculated using all replicates and using a standard deviation formula commonly used in the art.
One of skill in the art would recognize that for this type of primary neuronal mixed cell assay variability between different assay runs is to be expected even though the protocol is the same for each assay run. For instance, variability may be due to small differences in cell viability, cell density, age of the animals, etc.
Vertex Myelin Detection Software: […]

Setting [1] is: relative to baseline of no added compound, read-out: Fold myelin pixels above background, 1.0 μM.
Where [2] appears, read: 10.0 μM compound, relative to baseline of no added compound, read-out: Fold myelin pixels above background, 10.0 μM.
The mark [3] stands for this setting: relative to baseline of no added compound, read-out: Fold myelin pixels above background.
Setting [4] is: 10.0 μM compound, relative to baseline of no added compound, read-out: Fold myelin pixels above background.
Setting [5] is: read-out: Fold myelin pixels above background relative to baseline of no added compound.
Where [6] appears, read: 10.0 μM compound, read-out: Fold myelin pixels above background relative to baseline of no added compound.

Consider `COCCN(C)c1cc(F)cc(-n2cnc(Nc3cc(C)cc(N4CCN(C5COC5)CC4)c3)n2)c1` [Compound 373, 1-[3-fluoro-5-[2-methoxyethyl(methyl)amino]phenyl]-N-[3-methyl-5-[4-(oxetan-3-yl)piperazin-1-yl]phenyl]-1,2,4-triazol-3-amine], for which the fold induction at 1 µM under setting [1] lay in the range of 100 to 1000. Moreover, the fold induction at 10 µM under setting [2] was 100 to 1000.
Consider `Cc1cc(Nc2ncn(-c3cccc(C(F)F)c3)n2)cc(N2CC(N3CCOCC3)C2)c1` [Compound 595, 1-[3-(difluoromethyl)phenyl]-N-[3-methyl-5-(3-morpholinoazetidin-1-yl)phenyl]-1,2,4-triazol-3-amine], for which, under setting [3], the fold induction at 1 µM lay within 1 to 10. Moreover, under setting [4], the fold induction at 10 µM is ≤ 1.
As for `Cc1cc(Nc2ncn(-c3ccccc3)n2)cc(O[C@H]2CCN(C3COC3)C2)c1` [Compound 239, N-[3-methyl-5-[(3S)-1-(oxetan-3-yl)pyrrolidin-3-yl]oxy-phenyl]-1-phenyl-1,2,4-triazol-3-amine], under setting [1], the fold induction at 1 µM is 1000 to 10000. Under setting [2], the fold induction at 10 µM is ≤ 1.
In the same order, the values of `CC(=O)N1CCCC(c2cc(C)cc(Nc3ncn(-c4cc(F)cc(F)c4)n3)c2)C1` (stereo not drawn) [Compound 266, 1-[3-[3-[[1-(3,5-difluorophenyl)-1,2,4-triazol-3-yl]amino]-5-methyl-phenyl]-1-piperidyl]ethanone] are 10 to 100 and 100 to 1000.
In the case of `COc1cc(Nc2ncn(-c3ccc(Cl)c(F)c3)n2)nc(N2CCN(C3COC3)CC2)c1` [Compound 758, N-[1-(4-chloro-3-fluoro-phenyl)-1,2,4-triazol-3-yl]-4-methoxy-6-[4-(oxetan-3-yl)piperazin-1-yl]pyridin-2-amine], under setting [3], the fold induction at 1 µM fell in the range of 10 to 100. Moreover, under setting [4], the fold induction at 10 µM was in the range of 10 to 100.
Take `COCCNC1CN(c2cc(C)cc(Nc3ncn(-c4cc(F)cc(F)c4)n3)c2)C1` [Compound 816, 1-(3,5-difluorophenyl)-N-[3-[3-(2-methoxyethylamino)azetidin-1-yl]-5-methyl-phenyl]-1,2,4-triazol-3-amine]: under setting [5], the fold induction at 1 µM fell in the range of 1 to 10. In addition, under setting [6], the fold induction at 10 µM lay in the range of 1 to 10.
In the case of `Cc1cc(Nc2ncn(-c3cc(F)cc(F)c3)n2)cc(NC2CCOC(C)(C)C2)c1` (stereo not drawn) [Compound 970, N3-[1-(3,5-difluorophenyl)-1,2,4-triazol-3-yl]-N1-(2,2-dimethyltetrahydropyran-4-yl)-5-methyl-benzene-1,3-diamine], the fold induction at 1 µM under setting [5] was in the range of 10 to 100. Besides, the fold induction at 10 µM under setting [6] was ≤ 1.
`Cc1cc(Nc2ncn(-c3cc(F)cc(F)c3)n2)cc(N2CCN(CC(C)O)CC2)c1` (stereo not drawn) [Compound 995, 1-[4-[3-[[1-(3,5-difluorophenyl)-1,2,4-triazol-3-yl]amino]-5-methyl-phenyl]piperazin-1-yl]propan-2-ol]: the fold induction at 1 µM under setting [5] is 10 to 100. For the same molecule, under setting [6], the fold induction at 10 µM is ≤ 1.
In the case of `Cc1cc(Nc2ncn(-c3cncc(Cl)c3)n2)cc(N2CCN(C)CC2)c1` [Compound 262, 1-(5-chloro-3-pyridyl)-N-[3-methyl-5-(4-methylpiperazin-1-yl)phenyl]-1,2,4-triazol-3-amine], the fold induction at 1 µM under setting [1] lay within 10 to 100. The fold induction at 10 µM under setting [2] lay in the range of 100 to 1000.
`Fc1cc(F)cc(-n2cnc(Nc3cc(N4CCN(C5COC5)CC4)cc(F)n3)n2)c1` [Compound 847, N-[1-(3,5-difluorophenyl)-1,2,4-triazol-3-yl]-6-fluoro-4-[4-(oxetan-3-yl)piperazin-1-yl]pyridin-2-amine]: the fold induction at 1 µM under setting [5] lay within 1 to 10. Further, the fold induction at 10 µM under setting [6] lay within 1 to 10.
For the molecule `Cc1cc(Nc2ncn(-c3cc(F)cc(F)c3)n2)cc(N(C)C2COC2)c1` [Compound 197, N3-[1-(3,5-difluorophenyl)-1,2,4-triazol-3-yl]-N1,5-dimethyl-N1-(oxetan-3-yl)benzene-1,3-diamine], under setting [1], the fold induction at 1 µM lay within 100 to 1000. In addition, the fold induction at 10 µM under setting [2] lay within 100 to 1000.
As for `Cc1cc(Nc2ncn(-c3ccccc3)n2)cc(N2CC(C)NCC2C)c1` (stereo not drawn) [Compound 21, N-[3-(2,5-dimethylpiperazin-1-yl)-5-methyl-phenyl]-1-phenyl-1,2,4-triazol-3-amine], the fold induction at 1 µM under setting [1] was 10 to 100. In addition, the fold induction at 10 µM under setting [2] is ≤ 1.
Regarding `Cc1cc(Nc2ncn(-c3cccc(F)c3)n2)c(F)c(OC2CCOC2)c1` (single isomer, unassigned) [Compound 1061, N-(2-fluoro-5-methyl-3-tetrahydrofuran-3-yloxy-phenyl)-1-(3-fluorophenyl)-1,2,4-triazol-3-amine], the “Fold myelin pixels above background relative to baseline of no added compound” value (10.0 μM compound) is reported as “++ (>10 to 100x)”. Under setting [5], the fold induction at 1 µM was 10 to 100.
Take `Cc1cc(Nc2ncn(-c3cc(F)cc(F)c3)n2)cc(N2CC(N3CCO[C@@H](C)C3)C2)c1` [Compound 730, 1-(3,5-difluorophenyl)-N-[3-methyl-5-[3-[(2S)-2-methylmorpholin-4-yl]azetidin-1-yl]phenyl]-1,2,4-triazol-3-amine]: the fold induction at 1 µM under setting [3] lay in the range of 10 to 100. Besides, the fold induction at 10 µM under setting [4] was 10 to 100.
With `Cc1cc(Nc2ncn(-c3cc(F)cc(F)c3)n2)cc(N2CCN([C@H]3CCOC3)CC2)c1` [Compound 530, 1-(3,5-difluorophenyl)-N-[3-methyl-5-[4-[(3S)-tetrahydrofuran-3-yl]piperazin-1-yl]phenyl]-1,2,4-triazol-3-amine], the fold induction at 1 µM under setting [3] was 100 to 1000. The fold induction at 10 µM under setting [4] was 100 to 1000.
`Cc1cc(Nc2ncn(-c3ccccc3)n2)cc(N2CCN(C3CCOCC3)CC2)c1` [Compound 289, N-[3-methyl-5-(4-tetrahydropyran-4-ylpiperazin-1-yl)phenyl]-1-phenyl-1,2,4-triazol-3-amine]: the fold induction at 1 µM under setting [1] was 1000 to 10000. Moreover, under setting [2], the fold induction at 10 µM was in the range of 1 to 10.
Consider `Cc1cc(Nc2ncn(-c3cc(F)cc(F)c3)n2)cc(N2CC(N3CC4CC(C3)O4)C2)c1` [Compound 742, 1-(3,5-difluorophenyl)-N-[3-methyl-5-[3-(6-oxa-3-azabicyclo[3.1.1]heptan-3-yl)azetidin-1-yl]phenyl]-1,2,4-triazol-3-amine], for which the fold induction at 1 µM under setting [3] was in the range of 10 to 100. Also, the fold induction at 10 µM under setting [4] is ≤ 1.
With `Cc1cc(Nc2ncn(-c3cc(F)cc(F)c3)n2)cc(C2CN(C3COC3)C2)c1` [Compound 229, 1-(3,5-difluorophenyl)-N-[3-methyl-5-[1-(oxetan-3-yl)azetidin-3-yl]phenyl]-1,2,4-triazol-3-amine], the fold induction at 1 µM under setting [1] was 100 to 1000. For the same molecule, the fold induction at 10 µM under setting [2] was in the range of 100 to 1000.
With `Cc1cc(Nc2ncn(-c3cc(F)cc(F)c3)n2)cc(N2CCN(CC3CCOC3)CC2)c1` (stereo not drawn) [Compound 936, 1-(3,5-difluorophenyl)-N-[3-methyl-5-[4-(tetrahydrofuran-3-ylmethyl)piperazin-1-yl]phenyl]-1,2,4-triazol-3-amine], the fold induction at 1 µM under setting [5] was in the range of 10 to 100. For the same molecule, the fold induction at 10 µM under setting [6] was ≤ 1.
Regarding `Cc1cc(Nc2ncn(-c3cc(F)cc(F)c3)n2)cc(N2CCN(CCOC(C)C)CC2)c1` [Compound 1005, 1-(3,5-difluorophenyl)-N-[3-[4-(2-isopropoxyethyl)piperazin-1-yl]-5-methyl-phenyl]-1,2,4-triazol-3-amine], the fold induction at 1 µM under setting [5] lay in the range of 1 to 10. Moreover, the fold induction at 10 µM under setting [6] is ≤ 1.
`Fc1cc(F)cc(-n2cnc(Nc3cc(C(F)(F)F)cc(N4CCOCC4)n3)n2)c1` [Compound 674, N-[1-(3,5-difluorophenyl)-1,2,4-triazol-3-yl]-6-morpholino-4-(trifluoromethyl)pyridin-2-amine]: the fold induction at 1 µM under setting [3] fell in the range of 1 to 10. Further, the fold induction at 10 µM under setting [4] was 1 to 10.
